Test results published in PubChem BioAssay (NCI).
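Results reflect a 48-hour exposure of cells in 96-well plates to compound at five concentrations. GI50 is the concentration that inhibits growth by half. TGI denotes the concentration required for complete inhibition of growth.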

These compounds were tested on SN12C renal (assay: growth of human tumour cells (NCI), 48 h).

Question: `COc1ccc(OC)c2c1[nH]c(=O)c1c3ccccc3cn21` was tested. Which GI50 did it give?
Answer: The GI50 was 1.23 µM.

Question: And the TGI?
Answer: Its TGI is 2.58 µM.

Question: For `O=CCC1CCCCC1`, which TGI is on record?
Answer: The TGI was > 100 µM.

Question: With `CSc1nc(=O)n(CCC#N)nc1SC` as the compound, how does the TGI read?
Answer: The TGI was > 100 µM.

Question: What does the source list for `COc1cc(Nc2ncccc2C(=O)NCc2cn(Cc3cccc(Oc4ccccc4)c3)nn2)cc(OC)c1`?
Answer: GI50: 7.41 µM; TGI: > 100 µM

Question: How did the GI50 turn out when `Nc1ccc([N+](=O)[O-])cc1N=C/C=C/c1ccccc1` was run?
Answer: Its GI50 is 8.06 µM.

Question: What about the TGI of the same compound?
Answer: Its TGI is > 100 µM.

Question: With `Cc1cc(Nc2ccc(NC(=O)c3ccc(Nc4ccnc5ccccc45)cc3)cc2)nc(N)n1` as the compound, how does the GI50 read?
Answer: Its GI50 is 2.13 µM.

Question: What about the TGI of the same compound?
Answer: The TGI was 5.02 µM.

Question: Which results are given for `COc1cc(-c2oc(=O)ccc2C#Cc2ccccn2)cc(OC)c1OC`?
Answer: GI50: 5.5 µM; TGI: > 100 µM

Question: For `COc1cccc(C2CC(C)(O)Oc3cc4c(cc32)OCO4)c1O` (configuration not stated), which TGI is on record?
Answer: Its TGI is 89.2 µM.

Question: Which TGI does the source give for `COC(=O)C1c2cc3c(cc2C(OC2OC(C)C(OC)C(C)(OC)C2OC)CC1(C)O)C(=O)c1c(O)cc2c(c1C3=O)OC1OC2(C)C(O)C([N+](C)(C)[O-])C1O` (configuration not stated) here?
Answer: Its TGI is 1.8 µM.

Question: `CNCc1ccccc1-c1csc([C@@H](C)Nc2nc(C)nc3cc(OC)c(OC)cc23)c1` was tested. Which GI50 did it give?
Answer: The GI50 was 1.48 µM.

Question: What about the TGI of the same compound?
Answer: Its TGI is 5.02 µM.

Question: `Cn1cc(C2=C(c3ccc(N)cc3)C(=O)NC2=O)c2ccccc21` was tested. Which GI50 did it give?
Answer: Its GI50 is 16.3 µM.

Question: And the TGI?
Answer: Its TGI is > 25 µM.

Question: What does the source list for `Cc1cc(Cl)cc(OCCn2cc(F)cn2)c1-c1nc(N)nc2c1CN(C(=O)NCC(C)(F)F)C2`?
Answer: GI50: 0.0745 µM; TGI: > 100 µM

Question: With `COc1ccc(/C=C\[N+](=O)[O-])cc1OC` as the compound, how does the GI50 read?
Answer: The GI50 was 3.06 µM.

Question: And the TGI?
Answer: The TGI was 13.2 µM.

Question: What does the source list for `CCN(CC)CCC(CNc1ccnc2cc(Cl)ccc12)c1ccc(Cl)cc1` (configuration not stated)?
Answer: GI50: 1.84 µM; TGI: 10.4 µM

Question: Which results are given for `COc1cccc(F)c1C(=O)c1cnc(NC2CCN(S(C)(=O)=O)CC2)nc1N`?
Answer: GI50: 5.08 µM; TGI: > 25 µM

Question: With `CCOC(=O)C(C#N)C1=CC(=O)C(=O)c2ccc(OC)cc21` (configuration not stated) as the compound, how does the TGI read?
Answer: Its TGI is 33.8 µM.

Question: How did the GI50 turn out when `COc1cc(OCc2cccc(-c3ccc(C(O)c4nccs4)cc3)c2C)cc(OC)c1C=O` (configuration not stated) was run?
Answer: Its GI50 is 1.98 µM.

Question: What about the TGI of the same compound?
Answer: The TGI was 7.07 µM.

Question: Which GI50 does the source give for `COC(=O)c1ccc2c(c1)nc(NC(=O)c1ccccc1)n2CCCc1ccccc1` here?
Answer: The GI50 was 17.6 µM.

Question: What about the TGI of the same compound?
Answer: Its TGI is > 100 µM.

Question: How did the TGI turn out when `Cc1ccc(S(=O)(=O)Nc2ccccc2C=O)cc1` was run?
Answer: The TGI was 45 µM.

Question: Which results are given for `O=C(O)COc1ccc2c(=O)c3sc4c(=O)c5ccccc5c(=O)c4c3c(=O)c2c1`?
Answer: GI50: 12.3 µM; TGI: 29.8 µM

Question: How did the TGI turn out when `O=C(Nc1ccc2ncccc2c1)Nc1ccc2ncccc2c1` was run?
Answer: The TGI was > 100 µM.

Question: For `CC1(C)S[C@@H]2[C@H](NC(=O)C3(N)CCCCC3)C(=O)N2[C@H]1C(=O)O`, which TGI is on record?
Answer: Its TGI is > 100 µM.

Question: `NC(=O)/C=C/C(=O)c1c(Cl)cccc1Cl` was tested. Which GI50 did it give?
Answer: Its GI50 is 1.4 µM.

Question: What about the TGI of the same compound?
Answer: Its TGI is 2.69 µM.

Question: What does the source list for `CC1(C)N=C(N)N=C(N)N1c1ccc(CCCCc2ccc(Cl)cc2S(=O)(=O)F)c(Cl)c1`?
Answer: GI50: 0.34 µM; TGI: 14.7 µM

Question: `O=C(Nc1ccc(Nc2ccncc2)cc1)c1ccc([N+](=O)[O-])cc1` was tested. Which GI50 did it give?
Answer: Its GI50 is 2.75 µM.

Question: And the TGI?
Answer: Its TGI is 8.79 µM.

Question: With `C(=NCCN1CCOCC1)=NC1CCCCC1` as the compound, how does the TGI read?
Answer: Its TGI is > 100 µM.

Question: Which results are given for `COc1ccccc1/C=N\N/C(N)=N\N=C\c1ccccc1OC`?
Answer: GI50: 1.7 µM; TGI: > 46.8 µM

Question: `CC[As](CC)SC[C@H](C)C(=O)N1CCC[C@H]1C(=O)O` was tested. Which GI50 did it give?
Answer: Its GI50 is 0.0637 µM.

Question: And the TGI?
Answer: Its TGI is 0.218 µM.

Question: For `NC(N)=N/N=C/c1c(-c2ccsc2)nc2sccn12`, which GI50 is on record?
Answer: Its GI50 is 15.7 µM.

Question: What about the TGI of the same compound?
Answer: The TGI was 29.7 µM.

Question: What does the source list for `Oc1ccc(Nc2ncnc3c2sc2ncccc23)cc1`?
Answer: GI50: 0.244 µM; TGI: > 100 µM

Question: For `COc1cccc(CC(C)=C(c2ccc(OCCN(C)C)cc2)c2ccc(OCCN(C)C)cc2)c1`, which GI50 is on record?
Answer: Its GI50 is 4.19 µM.

Question: What about the TGI of the same compound?
Answer: The TGI was 8.69 µM.

Question: Which GI50 does the source give for `NC(=S)N/N=C/C(=O)O` here?
Answer: The GI50 was > 100 µM.

Question: What about the TGI of the same compound?
Answer: The TGI was > 100 µM.

These compounds were tested on TK-10 renal (assay: growth of human tumour cells (NCI), 48 h).

Question: Which GI50 does the source give for `COc1ccc(Sc2[nH]c(C(C)=O)c3ccccc23)cc1` here?
Answer: The GI50 was 15 µM.

Question: What about the TGI of the same compound?
Answer: Its TGI is 37.5 µM.
